{
  "source": "patent US20070299040A1",
  "about": "“Composition for Preventing a Cold” (BIOTECH INSTITUTE FOR INTERNATIONAL INNOVATION, INC., priority 2004, published 2007)",
  "assay_type_in_all_cases": "in vivo, human",
  "key": {"[1]": {"tested_on": "cold", "experiment": "Analysis of cold cases, composition of Example 8 vs vitamin C and placebo (Experimental Example 3)", "text": "The present experiment example analyzed cold cases in the experiment group who took the composition of Example 8, and the control groups I and II who took vitamin C and placebo (wheat flour) respectively, throughout 40 months from 1999 to 2003. The intake is the same as 1 g after meal. Here, ‘cold’ is defined to show high fever or slight fever, sore throat, dry cough, headache, myalgia, and chill.\nAs a result of the above experiment, the average of cold case a year per person in the experiment group who took the present composition, the control group I who took vitamin C, and the control group II who took placebo was 0, 1.5, and 5.6, respectively, all of which are statistically significant difference under 0.05% of significance probability. In sum, the composition of the present invention accomplished 100% of cold prevention effect."}, "[2]": {"tested_on": "IL-12", "experiment": "Cytokine in serum by ELISA (Experimental Example 4)", "conditions": "samples from persons after 40 months of intake; 10 samples", "method": "(§1) After such cultivating, the plates were washed, biotynilated secondary antibody was filled in each plate by […], and streptavidin ALP was added thereto, which was cultivated at 37° C. for 30 minutes. After washing the plates again, alkaline phosphatase PNPP was added thereto, and the plates were cultivated for 30 minutes and measured with ELISA reader at 405 nm."}, "[3]": {"tested_on": "IL-2", "experiment": "Cytokine in serum by ELISA (Experimental Example 4)", "conditions": "samples from persons after 40 months of intake; 10 samples", "method": "as §1"}, "[4]": {"tested_on": "IL-4", "experiment": "Cytokine in serum by ELISA (Experimental Example 4)", "conditions": "samples from persons after 40 months of intake; 10 samples", "method": "as §1"}, "[5]": {"tested_on": "IL-10", "experiment": "Cytokine in serum by ELISA (Experimental Example 4)", "conditions": "samples from persons after 40 months of intake", "method": "as §1"}, "[6]": {"tested_on": "INF-γ", "experiment": "Cytokine in serum by ELISA (Experimental Example 4)", "conditions": "samples from persons after 40 months of intake; 10 samples", "method": "as §1"}},
  "note": "Where “and” joins values, the source holds several entries; their conditions need not be identical. Equal entries are not always repeated.",
  "data": [
    {"molecule": "O=C1O[C@H]([C@@H](O)CO)C(O)=C1O", "note": "[Vitamin C, ascorbic acid]", "values": [
      {"measurement": "average of cold case a year per person", "setting": "[1]; 40 months, 1 g after meal", "result": 1.5},
      {"measurement": "cold prevention effect (in words)", "setting": "[1]; group administrating vitamin C only", "result": "some cold prevention effect"},
      {"measurement": "Frequency of cold in the control group taking vitamin C", "setting": "[1]; per person (one line per subject), 1 g after meal, 40 months 1999-2003", "result": "4 (7×) and 5 (5×) and 7 and 6 (2×)"},
      {"measurement": "Cytokine in serum IL-12", "setting": "[2]", "result": "20 ± 7", "unit": "pg/mL"},
      {"measurement": "Cytokine in serum IL-2", "setting": "[3]", "result": "51 ± 19", "unit": "pg/mL"},
      {"measurement": "Cytokine in serum IL-4", "setting": "[4]", "result": "0.14 ± 0.03", "unit": "pg/mL"},
      {"measurement": "Cytokine in serum IL-10", "setting": "[5]", "result": "10 ± 8", "unit": "pg/mL"},
      {"measurement": "Cytokine in serum INF-γ", "setting": "[6]", "result": "68 ± 12", "unit": "pg/mL"}
    ]}
  ]
}
